From ChEMBL document CHEMBL1132165, “Analogues of neuroactive polyamine wasp toxins that lack inner basic sites exhibit enhanced antagonism toward a muscle-type mammalian nicotinic acetylcholine receptor” (J Med Chem, 1999)

Experiments:
Settings in all cases: TE-671
[1] = target: Acetylcholine receptor subunit alpha (Homo sapiens) (UniProt P02708)
Description: Proteolytic properties against human muscle type nicotinic Acetylcholine receptor(nAchr) from TE671 cells, expressed as acidity constant (pKa2)

[2] = target: Acetylcholine receptor subunit alpha (Homo sapiens) (UniProt P02708); remark: listed apart in the source
Description: Proteolytic properties against human muscle type nicotinic Acetylcholine receptor(nAchr) from TE671 cells, expressed as acidity constant (pKa1)

[3] = target: Acetylcholine receptor subunit alpha (Homo sapiens) (UniProt P02708); remark: listed apart in the source
Description: Proteolytic properties against human muscle type nicotinic Acetylcholine receptor(nAchr) from TE671 cells, expressed as acidity constant (pKa3)

[4] = target: Acetylcholine receptor subunit alpha (Homo sapiens) (UniProt P02708); test: […] properties against human muscle type nicotinic Acetylcholine receptor (nAchr) from TE671 cells, expressed as acidity constant (pKa1); format: functional, cell-based

Sequence of Acetylcholine receptor subunit alpha (Homo sapiens) (P02708 whole entry): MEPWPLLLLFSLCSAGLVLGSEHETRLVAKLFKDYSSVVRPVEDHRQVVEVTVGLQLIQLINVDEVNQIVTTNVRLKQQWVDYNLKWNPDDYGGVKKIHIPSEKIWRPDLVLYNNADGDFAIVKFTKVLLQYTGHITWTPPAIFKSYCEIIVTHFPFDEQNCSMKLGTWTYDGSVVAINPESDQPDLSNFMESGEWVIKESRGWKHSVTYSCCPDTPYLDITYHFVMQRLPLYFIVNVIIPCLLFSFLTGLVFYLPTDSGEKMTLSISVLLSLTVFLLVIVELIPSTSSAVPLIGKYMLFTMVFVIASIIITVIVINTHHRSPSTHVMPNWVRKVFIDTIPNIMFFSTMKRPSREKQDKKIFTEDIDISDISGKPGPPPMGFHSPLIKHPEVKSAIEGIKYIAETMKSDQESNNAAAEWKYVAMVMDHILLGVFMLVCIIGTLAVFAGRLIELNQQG

| SMILES | pKa2 [1] | pKa1 [2] | pKa3 [3] | pKa1 [4] |
| --- | --- | --- | --- | --- |
| CCCC(=O)NC(Cc1ccc(O)cc1)C(=O)NCCCNCCCCCCCCN (stereo unspecified) | 10.4 | 9.71 | 11.3 |  |
| CCCC(=O)NC(Cc1ccc(O)cc1)C(=O)NCCCCCCCCNCCCN (stereo unspecified) | 10.2 | 9.32 | 11.4 |  |
| CCCC(=O)NC(Cc1ccc(O)cc1)C(=O)NCCCOCCCCOCCCN (stereo unspecified) | 10.9 |  |  | 10 |
| CCCC(=O)NC(Cc1ccc(O)cc1)C(=O)NCCCNCCCCOCCCN (stereo unspecified) | 10.2 | 9.47 | 10.9 |  |
| CCCC(=O)NC(Cc1ccc(O)cc1)C(=O)NCCCOCCCCNCCCN (stereo unspecified) | 10.3 | 9.23 | 11.3 |  |
| CCCC(=O)NC(Cc1ccc(O)cc1)C(=O)NCCCCCCCCCCCCN (stereo unspecified) | 11.3 |  |  | 10.3 |
